Measurements published in US12479845B2, “Imidazopyridine derivative compounds and use of same” (HANMI PHARM. CO., LTD., priority 2019, dated 2025).

Assays:
NCI-H1417 cells = assay: Cell growth suppression test (CellTiter-Glo Luminescent Cell Viability Assay, 10 days treatment); type: cell-based; conditions: Homo sapiens, 240 h, treated for 10 days
LSD1 = LSD1 (Homo sapiens (Human), UniProt O60341); assay: Biochemical analysis of LSD1 histone demethylase inhibition (BPS Bioscience LSD1 fluorescence analysis kit, HRP/Amplex Red); conditions: demethylation of Lys4 of histone H3
Protocol: The biochemical inhibition activity of the synthesized compounds on LSD1 was measured. The activity measurement was performed using LSD1 fluorescence analysis kit (available from BPS Bioscience Co., Ltd., Catalog No: 50106). This analysis kit is designed to measure activity of LSD1 enzyme. H2O2 generated upon demethylation of Lys4 moiety of histone H3 by LSD1 is reacted with HRP/Amplex Red reagent to form fluorescent Resorufin, which is measured by this kit, thereby confirming demethylation.
The results are expressed as an IC50 value. As for a control, GSK2879552 (available from GlaxoSmithKline USA) was used.

Row | Compound | GI50 (NCI-H1417 cells) | IC50 (LSD1)
1 | COC1CCN(c2ccc(-n3c(-c4ccc(C#N)c(F)c4)nc4c(N5CCC[C@@H](N)C5)ccnc43)c(F)c2)C1 (stereo partly drawn) [Example 23, 4-(7-((R)-3-aminopiperidine-1-yl)-3-(2-fluoro-4-(3-methoxypyrrolidine-1-yl)phenyl)-3H-imidazo[4,5-b]pyridine-2-yl)-2-fluorobenzonitrile] | 4.8 nM | 17 nM
2 | CO[C@@H]1CCN(c2ccc(-n3c(-c4ccc(C#N)c(F)c4)nc4c(N5CCC[C@@H](N)C5)ccnc43)c(F)c2)C1 [Example 24, 4-(7-((R)-3-aminopiperidine-1-yl)-3-(2-fluoro-4-((R)-3-methoxypyrrolidine-1-yl)phenyl)-3H-imidazo[4,5-b]pyridine-2-yl)-2-fluorobenzonitrile] | 7.6 nM | 19 nM
3 | CO[C@H]1CCN(c2ccc(-n3c(-c4ccc(C#N)c(F)c4)nc4c(N5CCC[C@@H](N)C5)ccnc43)c(F)c2)C1 [Example 25, 4-(7-((R)-3-aminopiperidine-1-yl)-3-(2-fluoro-4-((S)-3-methoxypyrrolidine-1-yl)phenyl)-3H-imidazo[4,5-b]pyridine-2-yl)-2-fluorobenzonitrile] | 4.4 nM | 38 nM
4 | N#Cc1ccc(-c2nc3c(N4CCC[C@@H](N)C4)ccnc3n2-c2ccc(N3CCC(F)(F)C3)cc2F)cc1F [Example 26, (R)-4-(7-(3-aminopiperidine-1-yl)-3-(4-(3,3-difluoropyrrolidine-1-yl)-2-fluorophenyl)-3H-imidazo[4,5-b]pyridine-2-yl)-2-fluorobenzonitrile] | 26 nM | 29 nM
5 | N#Cc1ccc(-c2nc3c(N4CCC[C@@H](N)C4)ccnc3n2-c2ccc(N3CCCC3)cc2F)cc1F [Example 27, (R)-4-(7-(3-aminopiperidine-1-yl)-3-(2-fluoro-4-(pyrrolidine-1-yl)phenyl)-3H-imidazo[4,5-b]pyridine-2-yl)-2-fluorobenzonitrile] | 64 nM | 37 nM
6 | Cc1ccc(-n2c(-c3ccc(C#N)c(F)c3)nc3c(N4CCC[C@@H](N)C4)ccnc32)cc1 [Example 28, (R)-4-(7-(3-aminopiperidine-1-yl)-3-(p-tolyl)-3H-imidazo[4,5-b]pyridine-2-yl)-2-fluorobenzonitrile] | 37 nM | 40 nM
7 | COC1CN(c2ccc(-n3c(-c4ccc(C#N)c(F)c4)nc4c(N5CCC[C@@H](N)C5)ccnc43)c(F)c2)C1 [Example 31, (R)-4-(7-(3-aminopiperidine-1-yl)-3-(2-fluoro-4-(3-methoxyazetidine-1-yl)phenyl)-3H-imidazo[4,5-b]pyridine-2-yl)-2-fluorobenzonitrile] | 32 nM | 30 nM
8 | CC(=O)O[C@H]1CCN(c2ccc(-n3c(-c4ccc(C#N)c(F)c4)nc4c(N5CCC[C@@H](N)C5)ccnc43)c(F)c2)C1 [Example 32, (S)-1-(4-(7-((R)-3-aminopiperidine-1-yl)-2-(4-cyano-3-fluorophenyl)-3H-imidazo[4,5-b]pyridine-3-yl)-3-fluorophenyl)pyrrolidine-3-yl acetate] | 46 nM | 38 nM
9 | N#Cc1ccc(-c2nc3c(N4CCC[C@@H](N)C4)ccnc3n2-c2ccc(N3CC[C@H](Cl)C3)cc2F)cc1F [Example 36, 4-(7-((R)-3-aminopiperidine-1-yl)-3-(4-((S)-3-chloropyrrolidine-1-yl)-2-fluorophenyl)-3H-imidazo[4,5-b]pyridine-2-yl)-2-fluorobenzonitrile] | 26 nM | 26 nM
10 | CCO[C@H]1CCN(c2ccc(-n3c(-c4ccc(C#N)c(F)c4)nc4c(N5CCC[C@@H](N)C5)ccnc43)c(F)c2)C1 [Example 39] | 3.6 nM | 25 nM
11 | N#Cc1ccc(-c2nc3c(N4CCC[C@@H](N)C4)ccnc3n2-c2ccc(N3CC4COCC4C3)cc2F)cc1F (stereo partly drawn) [Example 49, 4-(7-((R)-3-aminopiperidine-1-yl)-3-(2-fluoro-4-(tetrahydro-1H-furo[3,4-c]pyrrole-5(3H)-yl)phenyl)-3H-imidazo[4,5-b]pyridine-2-yl)-2-fluorobenzonitrile] | 5.3 nM | 30 nM
12 | CO[C@H]1CCN(c2ccc(-n3c(-c4ccc(C#N)c(F)c4)nc4c(N5CCC6(CCNC6)CC5)ccnc43)c(F)c2)C1 [Example 60, (S)-2-fluoro-4-(3-(2-fluoro-4-(3-methoxypyrrolidine-1-yl)phenyl)-7-(2,8-diazaspiro[4.5]decane-8-yl)-3H-imidazo[4,5-b]pyridine-2-yl)benzonitrile] | 32 nM | 100 nM
13 | CO[C@H]1CCN(c2ccc(-n3c(-c4ccc(C#N)c(F)c4)nc4c(N5CCC6CCNC6C5)ccnc43)c(F)c2)C1 (stereo partly drawn) [Example 61, 2-fluoro-4-(3-(2-fluoro-4-((S)-3-methoxypyrrolidine-1-yl)phenyl)-7-(octahydro-6H-pyrrolo[2,3-c]pyridine-6-yl)-3H-imidazo[4,5-b]pyridine-2-yl)benzonitrile] | 11 nM | 38 nM
14 | CO[C@H]1CCN(c2ccc(-n3c(-c4ccc(C#N)c(F)c4)nc4c(N5CCC[C@H](N)C5)ccnc43)c(F)c2)C1 [Example 62, 4-(7-((S)-3-aminopiperidine-1-yl)-3-(2-fluoro-4-((S)-3-methoxypyrrolidine-1-yl)phenyl)-3H-imidazo[4,5-b]pyridine-2-yl)-2-fluorobenzonitrile] | 20 nM | 36 nM
15 | CO[C@H]1CCN(c2ccc(-n3c(-c4ccc(C#N)c(F)c4)nc4c(N5CCC(N)C5)ccnc43)c(F)c2)C1 (stereo partly drawn) [Example 64, 4-(7-(3-aminopyrrolidine-1-yl)-3-(2-fluoro-4-((S)-3-methoxypyrrolidine-1-yl)phenyl)-3H-imidazo[4,5-b]pyridine-2-yl)-2-fluorobenzonitrile] | 14 nM | 24 nM
16 | CO[C@H]1CCN(c2ccc(-n3c(-c4ccc(C#N)c(F)c4)nc4c(N5CCCC[C@@H](N)C5)ccnc43)c(F)c2)C1 [Example 67, 4-(7-((R)-3-aminoazepane-1-yl)-3-(2-fluoro-4-((S)-3-methoxypyrrolidine-1-yl)phenyl)-3H-imidazo[4,5-b]pyridine-2-yl)-2-fluorobenzonitrile] | 2.7 nM | 30 nM
